These results are taken from patent US20050259249A1, “Nonlinear optical detection of fast cellular electrical activity” (priority 2004, published 2005).

Assay [1] has as its system mossy fibers. Kind of assay: Pharmacology: SHG from mossy fibers of acute hippocampal slices after cytoskeleton-depolymerizing drugs. It is filed as cell-based, rat. Conditions: for Effect on SHG from mossy fibers compared to the control: cytochalasin D 1 μM or nocodazole 25 μM, solvent control. An excerpt:
SHG and TPF microscopy were simultaneously performed on either a Bio-Rad MRC 1024 or Radiance scan head on a modified inverted Olympus IX-70 microscope (FIG. 1). The excitation source was a mode-locked Ti:Sapphire laser (˜100 fs pulses at 80 MHz) (Spectra-Physics) pumped by a 5 W solid state Millennia laser (Spectra-Physics). The laser polarization was controlled via a Berek polarization compensator (New Focus, San Jose, Calif.) and the beam focused into the sample with one of the following (overfilled back aperture) objectives: Zeiss C-Apochromat 10×/0.45 NA, Olympus UApo 20×/0.7 NA, Zeiss Fluar 20×/0.75 NA, Olympus UApo 40×/1.15 NA, Zeiss Fluar 40×/1.3 NA. The resultant SHG was collected in the transmitted (forward) direction with an Olympus XLUMPlanFl 20×/0.95 NA objective, while the TPF was epi-collected through the excitation objective. A combination of dichroic mirrors, band-pass and blue-glass filters (Chroma Technology, Brattleboro, Vt.) and polarization analyzers (Newport) separated the signals for detection with Bialkali photo-multiplier tubes (PMTs) (Hammamatsu). The excitation wavelength, average excitation intensity (<I>) at the sample, and two-photon 1/e radial Gaussian beam waist approximation (w) (Richards et al., Proc Royal Soc London Series A-Mathematical Physical Sciences 253:358-379 (1959), which is hereby incorporated by reference in its entirety) are given with the figures. The average power at the sample is (<I>·π·w^2). The images are temporally summed over several scans at dwell times ˜10-100 μs/μm^2. Confocal imaging was performed on the same microscope, but using an argon-krypton laser for excitation. […]
The slices were transferred from the static incubation bath to a static ASCF bath on the microscope stage. […] The average intensities from the three groups were calculated and compared for statistical significance with a T-test.

Assay [2] deals with neurons in the hippocampal region. The assay can be described thus: SHG line scan recording of membrane potential in dye-filled neurons of acute brain slices. It is filed as cell-based, rat. Conditions: neurons filled with dye via patch pipette, ~1060 nm/~300 fs laser pulses, voltage steps at the soma. An excerpt:
SHG microscopy is emerging as a powerful new method to optically record membrane potential changes of active neurons. […] This technique has been applied to acute rat brain slices by patch clamping and filling neurons in the hippocampal region with the dye FM4-64. […] The SHG signal emanates from the plasma membrane with little background from intra- or extracellular regions. […] Additionally, it has been shown that a backward propagating SHG signal exists (Forward/Backward ratio ˜6).
Repeated line scanning of the SHG signal was used to optically record action potentials (signal to noise ratio (S/N) ˜5-8 by temporal averaging of ˜50 line scans) on somatic membranes. Voltage steps were applied at the soma and the SHG response was recorded in the dendritic arbor >100 μm deep in slice. Dendritic spines were clearly visible, possibly making the recording of membrane potential transients from these compartments feasible. […] The line scan averaging necessary to increase S/N was accomplished in minutes. […] In addition to patch clamping, it was shown that extracellular micropipette pressure injection of the dye into hippocampal cell layers leads to SHG labeling of many tens of neurons.

Assay [3] has as its system cultured Aplysia neurons. Kind of assay: SHG line scan recording of Vm in dye-stained cultured Aplysia neurons under voltage clamp. It is filed as cell-based, Aplysia californica. Conditions: 8 μM dye extracellular perfusion, 940 nm excitation, two-electrode voltage clamp. As to the method:
Abdominal and cerebral ganglia from up to 15 different 5-10 g Aplysia californica were dissociated and cultured with like ganglia (i.e., abdominal with abdominal, cerebral with cerebral) according to Banker and Goslin (i.e., Banker et al., Culturing Nerve Cells, 2nd Edition, Cambridge, Mass.: MIT Press (1998), which is hereby incorporated by reference in its entirety). The cultures were grown in MatTek glass bottom dishes (MatTek Corp., Ashland, Mass.) at 17-18 C. For recordings, 4 to 14 day old cultures were used.
For staining and imaging, 4-[[4-(dihexylamino)phenyl]]ethynyl]-1-(4-sulfobutyl)pyridinium, inner salt (“DHPESBP”) (“Molecule B” from Moreaux et al., “Electro-Optic Response of Second-Harmonic Generation Membrane Potential Sensors,” Optics Letters 28:625-627 (2003), which is hereby incorporated by reference in its entirety) was used, because of its proven fast (<150 μs) response to Vm. SHG from giant unilamellar vesicles stained with this molecule was sensitive to Vm on fast time scales through an electrochromic (rather than reorientational) mechanism (Moreaux et al., “Electro-Optic Response of Second-Harmonic Generation Membrane Potential Sensors,” Optics Letters 28:625-627 (2003), which is hereby incorporated by reference in its entirety). […]
A general note: Two-electrode voltage clamp holds a large cell at a set potential and records current.

For assay [4] the following is noted: electrochromic mechanism; from Moreaux et al., Optics Letters 28:625-627 (2003); cited from earlier work.

“Also recorded” adds a separate entry of the source. Where a name gives a salt, the structure may show the parent alone.

Take `COC(=O)Nc1nc2ccc(C(=O)c3cccs3)cc2[nH]1` [nocodazole, Nocodazole]: in assay [1] (continuous treatment, nocodazole 25 μM, imaged for 70 min, 34° C., 4 slices), the “SHG from the mossy fibers after addition of the drug, relative to its original value” is on record as roughly 39%. Besides, in assay [1], the “Effect on SHG from mossy fibers compared to the control” value was “drastic”.
On to `CCN(CC)c1ccc(C=CC=CC=Cc2cc[n+](CCC[N+](CC)(CC)CC)cc2)cc1.[Br-].[Br-]` [FM4-64, N-(3-triethylammoniumpropyl)-4-(6-(4-(diethylamino)phenyl)hexatrienyl)pyridinium dibromide], for which the “SHG signal linear response to membrane potential” value in assay [2] is listed as roughly 7.7 %/100 mV.
Regarding `CCCCCCN(CCCCCC)c1ccc(C#Cc2cc[n+](CCCCS(=O)(=O)[O-])cc2)cc1` [DHPESBP, 4-[[4-(dihexylamino)phenyl]ethynyl]-1-(4-sulfobutyl)pyridinium, inner salt], in assay [3], the “SHG signal change as a function of change in membrane potential (linear response)” value is roughly 6 %/100 mV. Also, the “Response time of SHG to Vm” value in assay [4] is on record as less than 150 μs.
`C=C1[C@@H](C)[C@H]2[C@H](Cc3ccccc3)NC(=O)[C@]23[C@H](OC(C)=O)/C=C/[C@@](C)(O)C(=O)[C@@H](C)C/C=C/[C@H]3[C@@H]1O` [Cytochalasin D]: in assay [1], the “Effect on SHG from mossy fibers compared to the control” value is listed as “did not affect the SHG; also recorded: no significant effect”.
